Measurements reported in ChEMBL document CHEMBL1122565, “Quantitative structure-activity relationships of 6-anilinouracils as inhibitors of Bacillus subtilis DNA polymerase III” (J Med Chem, 1984).

molecular target: DNA polymerase III PolC-type (Bacillus subtilis (strain 168), UniProt P13267); experiment: Inhibition constant against Bacillus subtilis DNA polymerase III (wild type).; settings: read-out: Log 1/Ki (converted)
Sequence (P13267 whole entry): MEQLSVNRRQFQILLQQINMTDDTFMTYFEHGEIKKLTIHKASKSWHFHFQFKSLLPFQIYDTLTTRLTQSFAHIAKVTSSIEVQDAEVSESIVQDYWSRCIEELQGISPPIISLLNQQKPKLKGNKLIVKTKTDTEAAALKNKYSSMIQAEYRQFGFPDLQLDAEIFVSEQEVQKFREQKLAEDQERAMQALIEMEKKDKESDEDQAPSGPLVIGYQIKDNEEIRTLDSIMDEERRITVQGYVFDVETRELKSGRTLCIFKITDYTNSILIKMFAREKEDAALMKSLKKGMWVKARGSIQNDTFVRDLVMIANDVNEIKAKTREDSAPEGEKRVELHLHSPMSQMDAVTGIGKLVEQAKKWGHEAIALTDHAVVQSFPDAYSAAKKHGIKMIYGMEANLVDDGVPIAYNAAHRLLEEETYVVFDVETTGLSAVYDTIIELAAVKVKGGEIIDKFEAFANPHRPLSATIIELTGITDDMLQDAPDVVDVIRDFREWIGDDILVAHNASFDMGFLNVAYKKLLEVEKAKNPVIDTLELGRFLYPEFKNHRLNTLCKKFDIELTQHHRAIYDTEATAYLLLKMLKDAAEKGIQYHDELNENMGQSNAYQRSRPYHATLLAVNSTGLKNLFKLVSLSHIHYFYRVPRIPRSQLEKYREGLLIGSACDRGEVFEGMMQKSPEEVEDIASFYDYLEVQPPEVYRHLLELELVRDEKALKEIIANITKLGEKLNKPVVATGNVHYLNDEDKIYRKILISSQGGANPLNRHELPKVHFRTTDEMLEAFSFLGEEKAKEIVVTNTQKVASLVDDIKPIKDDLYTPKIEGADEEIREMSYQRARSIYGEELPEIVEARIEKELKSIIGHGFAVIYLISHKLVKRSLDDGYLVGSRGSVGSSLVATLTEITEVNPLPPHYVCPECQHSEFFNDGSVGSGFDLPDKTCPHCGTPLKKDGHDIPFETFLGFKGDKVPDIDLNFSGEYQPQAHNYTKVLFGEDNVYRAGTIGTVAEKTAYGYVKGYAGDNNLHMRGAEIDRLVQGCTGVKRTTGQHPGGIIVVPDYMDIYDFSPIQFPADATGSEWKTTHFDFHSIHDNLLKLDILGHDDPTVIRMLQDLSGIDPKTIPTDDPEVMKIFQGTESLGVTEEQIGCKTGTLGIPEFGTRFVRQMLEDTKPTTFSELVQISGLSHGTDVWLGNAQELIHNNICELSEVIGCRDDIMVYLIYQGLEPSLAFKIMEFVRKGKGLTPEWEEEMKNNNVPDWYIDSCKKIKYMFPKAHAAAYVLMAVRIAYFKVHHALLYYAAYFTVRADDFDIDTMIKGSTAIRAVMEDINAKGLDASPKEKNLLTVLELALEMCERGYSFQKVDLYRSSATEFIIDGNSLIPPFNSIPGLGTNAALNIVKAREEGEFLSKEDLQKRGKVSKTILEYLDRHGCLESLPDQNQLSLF

Row | SMILES | Ki
1 | CCc1cc(Nc2cc(=O)[nH]c(=O)[nH]2)ccc1C | 0.19 µM
2 | CCCCc1ccc(Nc2cc(O)nc(O)n2)cc1C | 692 µM
3 | CCCCc1cccc(Nc2cc(O)nc(O)n2)c1 | 695 µM
4 | CCc1ccc(Nc2cc(=O)[nH]c(=O)[nH]2)cc1C | 19 µM
5 | CCCc1ccc(Nc2cc(O)nc(O)n2)cc1C | 97.9 µM
6 | CCCc1cccc(Nc2cc(O)nc(O)n2)c1 | 17 µM

molecular target: DNA polymerase III (Bacillus subtilis); experiment: Inhibition constant against Bacillus subtilis azp-12 DNA polymerase III (mutant enzyme).; settings: not given

Row | SMILES | Log 1/Ki
7 | Oc1cc(Nc2cccc(Br)c2)nc(O)n1 | 4.66
8 | CC(=O)Nc1ccc(Nc2cc(O)nc(O)n2)cc1C | 2.81
9 | OCc1cccc(Nc2cc(O)nc(O)n2)c1 | 2.29
10 | CC(=O)Nc1cc(Nc2cc(O)nc(O)n2)ccc1C | 2.726
11 | Nc1ccc(Nc2cc(O)nc(O)n2)cc1 | 2.409
12 | CCCc1ccc(Nc2cc(O)nc(O)n2)cc1 | 4.278
13 | Cc1cccc(Nc2cc(O)nc(O)n2)c1 | 3.75
14 | CCCCc1ccc(Nc2cc(O)nc(O)n2)cc1C | 3.879
15 | Cc1cc(Nc2cc(O)nc(O)n2)ccc1N | 3.801
16 | CCCc1ccc(Nc2cc(O)nc(O)n2)cc1C | 4.86
17 | Cc1ccc(Nc2cc(O)nc(O)n2)cc1C | 5.456
18 | COc1ccc(Nc2cc(O)nc(O)n2)cc1 | 3.921
19 | Oc1cc(Nc2cccc(Cl)c2)nc(O)n1 | 4.38
20 | Cc1ccc(Nc2cc(O)nc(O)n2)cc1I | 6.553
